In publication PMC3149649, “Evidence for a Two-Metal-Ion Mechanism in the Cytidyltransferase KdsB, an Enzyme Involved in Lipopolysaccharide Biosynthesis” (PLoS ONE, 2011):

Key:
[1] = target: T1, AA-LCKS (LPS-specific CMP-Kdo synthetase, KdsB) (Aquifex aeolicus, UniProt O66914); test: X-ray crystal structure, […] Å; format: binding; settings: co-crystallised with 1 mM CTP; two Mg2+ (Mg-A, Mg-B) in active site; pH 7.5; 19°C
T1 construct: recombinant from plasmid pT7-kdsB in E. coli BL21-CodonPlus(DE3)-RIL; no tag mentioned; monomer 27 kDa, gel filtration 53 kDa, homodimer
T1 sequence (O66914 whole entry): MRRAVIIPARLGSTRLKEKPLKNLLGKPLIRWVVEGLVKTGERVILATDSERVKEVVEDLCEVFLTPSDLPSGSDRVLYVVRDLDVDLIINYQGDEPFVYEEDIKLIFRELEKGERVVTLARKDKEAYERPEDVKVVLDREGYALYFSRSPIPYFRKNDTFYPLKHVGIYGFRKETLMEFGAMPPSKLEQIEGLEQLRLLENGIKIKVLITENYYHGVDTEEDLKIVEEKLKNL

[2] = target: T1, AA-LCKS (LPS-specific CMP-Kdo synthetase, KdsB); test: discontinuous Kdo activation assay, CTP replaced by UTP; format: biochemical; settings: co-substrate Kdo; glycine-NaOH pH 9.0 or HEPES-NaOH pH 7.5; 80°C

Row | SMILES | X-ray crystal structure, 2.10 Å [1] | discontinuous Kdo activation assay, CTP replaced by UTP [2]
1 | Nc1ccn([C@@H]2O[C@H](COP(=O)(O)OP(=O)(O)OP(=O)(O)O)[C@@H](O)[C@H]2O)c(=O)n1 [CTP] | The CTP substrate is bound to the N-terminal domain in each molecule of AA-LCKS | 
2 | O=c1ccn([C@@H]2O[C@H](COP(=O)(O)OP(=O)(O)OP(=O)(O)O)[C@@H](O)[C@H]2O)c(=O)[nH]1 [UTP] |  | AA-LCKS was able to utilize UTP for Kdo activation but not ATP or GTP
